Target: T1, Human TRPA1 (Homo sapiens, UniProt O75762)
T1 construct: expressed in transfected cells; host or cells: CHO cells
Test: 45Calcium uptake assay: inhibition of AITC induced cellular uptake of radioactive calcium
Type: cell-based
Details: AITC (30 μM) induced 45Ca uptake, Human TRPA1 expressing CHO cells; for inhibition at 1 µM: 1.0 μM test compound, read-out: Percentage inhibition at 1.0 μM; for inhibition at 10 µM: 10.0 μM test compound, read-out: Percentage inhibition at 10.0 μM; for IC50: read-out: Human IC50 value (range)
From the text: The illustrative examples of the present invention are screened for TRPA1 activity according to a modified procedure described in (a) Tóth, A. et al., Life Sciences, 2003, 73, 487-498. (b) McNamara C, R. et al., Proc. Natl. Acad. Sci. U.S.A., 2007, 104, 13525-13530. The screening of the compounds can be carried out by other methods and procedures known to persons skilled in the art.
Screening for TRPA1 Antagonist Using the ^45Calcium Uptake Assay
The inhibition of TRPA1 receptor activation was measured as inhibition of allyl isothiocyanate (AITC) induced cellular uptake of radioactive calcium. Test compounds were dissolved in DMSO to prepare 10 mM stock solution and then diluted using plain medium with 0.1% BSA and 1.8 mM CaCl2 to get desired concentration. Final concentration of DMSO in the reaction was 0.5% (v/v). Human TRPA1 expressing CHO cells were grown in F-12 DMEM medium with 10% FBS, 1% penicillin-streptomycin solution, 400 μg/ml of G-418. Cells were seeded 24 h prior to the assay in 96 well plates so as to get ˜50,000 cells per well on the day of experiment. Cells were treated with test compounds for 10 min followed by addition of AITC at a final concentration of 30 μM and 5 μCi/ml ^45Ca^+2 for 3 min. Cells were washed and lysed using buffer containing 1% Triton X-100, 0.1% deoxycholate and 0.1% SDS. Radioactivity in the lysate was measured in Packard Top count after addition of liquid scintillant. Concentration response curves were plotted as a % of maximal response obtained in the absence of test antagonist. IC50 value was calculated from concentration response curve by nonlinear regression analysis using GraphPad PRISM software.

T1 sequence (O75762 whole entry): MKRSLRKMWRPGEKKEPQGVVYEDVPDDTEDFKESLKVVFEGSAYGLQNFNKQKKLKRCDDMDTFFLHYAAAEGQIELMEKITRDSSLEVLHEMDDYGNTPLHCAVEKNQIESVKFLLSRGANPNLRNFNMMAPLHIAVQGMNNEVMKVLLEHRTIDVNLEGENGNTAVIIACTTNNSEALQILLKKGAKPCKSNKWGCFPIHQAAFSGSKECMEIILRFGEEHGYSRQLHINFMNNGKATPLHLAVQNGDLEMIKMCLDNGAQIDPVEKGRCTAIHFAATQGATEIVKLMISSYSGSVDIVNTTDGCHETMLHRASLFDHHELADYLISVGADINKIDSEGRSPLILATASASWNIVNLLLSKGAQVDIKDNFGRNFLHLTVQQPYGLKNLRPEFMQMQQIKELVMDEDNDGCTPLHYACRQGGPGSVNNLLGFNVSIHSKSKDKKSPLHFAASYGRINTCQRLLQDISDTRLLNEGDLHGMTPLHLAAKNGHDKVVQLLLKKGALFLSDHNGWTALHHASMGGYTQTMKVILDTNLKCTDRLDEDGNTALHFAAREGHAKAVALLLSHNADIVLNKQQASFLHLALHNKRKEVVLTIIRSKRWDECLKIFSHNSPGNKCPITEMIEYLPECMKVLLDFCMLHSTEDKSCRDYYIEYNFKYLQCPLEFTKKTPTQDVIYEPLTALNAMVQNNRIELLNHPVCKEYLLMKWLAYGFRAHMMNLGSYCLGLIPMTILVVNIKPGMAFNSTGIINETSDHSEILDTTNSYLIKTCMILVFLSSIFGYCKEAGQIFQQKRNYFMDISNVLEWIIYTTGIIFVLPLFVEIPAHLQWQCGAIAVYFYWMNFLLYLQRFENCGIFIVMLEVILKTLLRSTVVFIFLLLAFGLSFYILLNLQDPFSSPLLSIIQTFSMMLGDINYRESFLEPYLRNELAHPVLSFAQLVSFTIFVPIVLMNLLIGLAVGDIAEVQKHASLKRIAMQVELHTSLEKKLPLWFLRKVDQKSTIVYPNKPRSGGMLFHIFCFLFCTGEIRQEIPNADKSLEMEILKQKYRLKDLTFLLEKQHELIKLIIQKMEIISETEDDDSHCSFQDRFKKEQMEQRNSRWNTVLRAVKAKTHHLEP

Row | SMILES | inhibition at 1 µM [%] | inhibition at 10 µM [%] | IC50 [nM]
1 | Cn1c(=O)c2c(ccn2CC(=O)Nc2nc(-c3cc(F)c(OCc4ccc(C(F)(F)F)cc4)c(F)c3)cs2)n(C)c1=O [Example 21, 2-(1,3-Dimethyl-2,4-dioxo-1,2,3,4-tetrahydro-5H-pyrrolo[3,2-d]pyrimidin-5-yl)-N-{4-[3,5-difluoro-4-[4-(trifluoromethyl)benzyloxy]phenyl)-1,3-thiazol-2-yl}acetamide] | 11.2 | 16.2 | –
2 | Cc1cc2c(c(=O)n(C)c(=O)n2C)n1CC(=O)Nc1nc(-c2ccc(C(F)(F)F)c(F)c2)cs1 [Example 22, N-[4-(3-Fluoro-4-trifluoromethylphenyl)-1,3-thiazol-2-yl]-2-(1,3,6-trimethyl-2,4-dioxo-1,2,3,4-tetrahydro-5H-pyrrolo[3,2-d]pyrimidin-5-yl)acetamide] | 81.4 | 99.4 | < 50
3 | Cn1c(=O)c2c(ccn2CC(=O)Nc2nc(-c3ccc(OCC(F)(F)F)c(Br)c3)cs2)n(C)c1=O [Example 23, N-{4-[3-Bromo-4-(2,2,2-trifluoroethoxy)phenyl]-1,3-thiazol-2-yl}-2-(1,3-dimethyl-2,4-dioxo-1,2,3,4-tetrahydro-5H-pyrrolo[3,2-d]pyrimidin-5-yl)acetamide] | 87.4 | 92.2 | 50 to 100
4 | Cc1cc2c(c(=O)n(C)c(=O)n2C)n1CC(=O)Nc1nc(-c2cc(F)c(OCC(C)(C)C)c(F)c2)cs1 [Example 24, N1-{4-[3,5-Difluoro-4-(2,2-dimethylpropoxy)phenyl]-1,3-thiazol-2-yl}-2-(1,3,6-trimethyl-2,4-dioxo-1,2,3,4-tetrahydro-5H-pyrrolo[3,2-d]pyrimidin-5-yl)acetamide] | 93.9 | 99.4 | < 50
5 | Cc1cc2c(c(=O)n(C)c(=O)n2C)n1CC(=O)Nc1nc(-c2ccc(F)c(C(F)(F)F)c2F)cs1 [Example 25] | 68.3 | 94.8 | –
6 | Cc1cc2c(c(=O)n(C)c(=O)n2C)n1CC(=O)Nc1nc(-c2cc(F)c(OCC(F)(F)F)c(F)c2)cs1 [Example 26, N-[4-(3,5-Difluoro-4-(2,2,2-trifluoroethoxy)phenyl)-1,3-thiazol-2-yl]-2-(1,3,6-trimethyl-2,4-dioxo-1,2,3,4-tetrahydro-5H-pyrrolo[3,2-d]pyrimidin-5-yl)acetamide] | 95.3 | 98.3 | < 50
7 | Cc1cc2c(c(=O)n(C)c(=O)n2C)n1CC(=O)Nc1nc(-c2cc(F)c(OCC3CCC3)c(F)c2)cs1 [Example 27, N-[4-(4-Cyclobutylmethoxy-3,5-difluorophenyl)-1,3-thiazol-2-yl]-2-(1,3,6-trimethyl-2,4-dioxo-1,2,3,4-tetrahydro-5H-pyrrolo[3,2-d]pyrimidin-5-yl)acetamide] | 87.6 | 99.2 | < 50
8 | Cc1cc2c(c(=O)n(C)c(=O)n2C)n1CC(=O)Nc1nc(-c2cc(F)c(OCC(C)(C)C)c(Cl)c2)cs1 [Example 28] | 99.5 | 99.7 | < 50
9 | Cc1cc2c(c(=O)n(C)c(=O)n2C)n1CC(=O)Nc1nc(-c2cc(Cl)c(OCC(C)(C)C)c(Cl)c2)cs1 [Example 29] | 95.6 | 97.1 | < 50
10 | Cc1cc2c(c(=O)n(C)c(=O)n2C)n1CC(=O)Nc1nc(-c2cc(F)c(OCC(F)(F)F)c(Cl)c2)cs1 [Example 30] | 93.6 | 100 | < 50
11 | Cc1cc2c(c(=O)n(C)c(=O)n2C)n1CC(=O)Nc1nc(-c2ccc(OCC(C)(C)C)c(F)c2)cs1 [Example 31, N-{4-[4-(2,2-Dimethylpropoxy)-3-fluorophenyl]-1,3-thiazol-2-yl}-2-(1,3,6-trimethyl-2,4-dioxo-1,2,3,4-tetrahydro-5H-pyrrolo[3,2-d]pyrimidin-5-yl)acetamide] | 87.4 | 95.3 | 50 to 100

The next lines start with the values.

Row | inhibition at 1 µM [%] | inhibition at 10 µM [%] | IC50 [nM] | SMILES
12 | 92.8 | 96.3 | < 50 | Cc1cc2c(c(=O)n(C)c(=O)n2C)n1CC(=O)Nc1nc(-c2ccc(OCC(C)(C)C)c(Cl)c2)cs1 [Example 32, N-{4-[3-Chloro-4-(2,2-dimethylpropoxy)phenyl]-1,3-thiazol-2-yl}-2-(1,3,6-trimethyl-2,4-dioxo-1,2,3,4-tetrahydro-5H-pyrrolo[3,2-d]pyrimidin-5-yl)acetamide]
13 | 0 | 28.3 | – | Cc1cc2c(c(=O)n(C)c(=O)n2C)n1CC(=O)Nc1cc(-c2ccc(Br)cc2)on1 [Example 33, N-[5-(4-bromophenyl)isoxazol-3-yl]-2-(1,3,6-trimethyl-2,4-dioxo-1,2,3,4-tetrahydro-5H-pyrrolo[3,2-d]pyrimidin-5-yl)acetamide]
14 | 88.8 | 97 | > 100 | Cc1cn(CC(=O)Nc2nc(-c3cc(F)c(OCC(C)(C)C)c(F)c3)cs2)c2c(=O)n(C)c(=O)n(C)c12 [Example 34, N-{4-[3,5-Difluoro-4-(2,2-dimethylpropoxy)phenyl]-1,3-thiazol-2-yl}-2-(1,3,7-trimethyl-2,4-dioxo-1,2,3,4-tetrahydro-5H-pyrrolo[3,2-d]pyrimidin-5-yl)acetamide]
15 | 64.7 | 96.8 | – | Cc1cn(CC(=O)Nc2nc(-c3ccc(C(F)(F)F)c(F)c3)cs2)c2c(=O)n(C)c(=O)n(C)c12 [Example 35, N-{4-[3-Fluoro-4-(trifluoromethyl)phenyl]-1,3-thiazol-2-yl}-2-(1,3,7-trimethyl-2,4-dioxo-1,2,3,4-tetrahydro-5H-pyrrolo[3,2-d]pyrimidin-5-yl)acetamide]
16 | 35.6 | 70.1 | – | Cn1c(=O)c2c(c(Br)cn2CC(=O)Nc2nc(-c3cc(F)c(OCC(C)(C)C)c(F)c3)cs2)n(C)c1=O [Example 36, 2-(7-Bromo-1,3-dimethyl-2,4-dioxo-1,2,3,4-tetrahydro-5H-pyrrolo[3,2-d]pyrimidin-5-yl)-N-{4-[3,5-difluoro-4-(2,2-dimethylpropoxy)phenyl]-1,3-thiazol-2-yl}acetamide]
17 | 52.9 | 95.4 | – | Cn1c(=O)c2c(c(Br)cn2CC(=O)Nc2nc(-c3ccc(C(F)(F)F)c(F)c3)cs2)n(C)c1=O [Example 37, 2-(7-Bromo-1,3-dimethyl-2,4-dioxo-1,2,3,4-tetrahydro-5H-pyrrolo[3,2-d]pyrimidin-5-yl)-N-{4-[3-fluoro-4-(trifluoromethyl)phenyl]-1,3-thiazol-2-yl}acetamide]
18 | 57 | 97.8 | – | CN(C)Cc1cn(CC(=O)Nc2nc(-c3ccc(C(F)(F)F)c(F)c3)cs2)c2c(=O)n(C)c(=O)n(C)c12 [Example 38, N-{4-[3-Fluoro-4-(trifluoromethyl)phenyl]-1,3-thiazol-2-yl}-2-{7-[(dimethylamino)methyl]-1,3-dimethyl-2,4-dioxo-1,2,3,4-tetrahydro-5H-pyrrolo[3,2-d]pyrimidin-5-yl}acetamide]
19 | 4.89 | 21.1 | – | CN(C)Cc1cn(CC(=O)Nc2nc(-c3cc(F)c(OCC(C)(C)C)c(F)c3)cs2)c2c(=O)n(C)c(=O)n(C)c12 [Example 39]
20 | 48.5 | 86.2 | – | CCN(CC)Cc1cn(CC(=O)Nc2nc(-c3ccc(C(F)(F)F)c(F)c3)cs2)c2c(=O)n(C)c(=O)n(C)c12 [Example 40, N-{4-[3-Fluoro-4-(trifluoromethyl)phenyl]-1,3-thiazol-2-yl}-2-{7-[(diethylamino)methyl]-1,3-dimethyl-2,4-dioxo-1,2,3,4-tetrahydro-5H-pyrrolo[3,2-d]pyrimidin-5-yl}acetamide]
21 | 38 | 86.5 | – | Cn1c(=O)c2c(CC(=O)Nc3nc(-c4ccc(C(F)(F)F)c(F)c4)cs3)cn(C)c2n(C)c1=O [Example 41, N-{4-[3-Fluoro-4-(trifluoromethyl)phenyl]-1,3-thiazol-2-yl}-2-(1,3,7-trimethyl-2,4-dioxo-2,3,4,7-tetrahydro-1H-pyrrolo[2,3-d]pyrimidin-5-yl)acetamide]
22 | 41.1 | 63.1 | – | Cn1c(=O)c2c(CC(=O)Nc3nc(-c4cc(F)c(OCC(C)(C)C)c(F)c4)cs3)cn(C)c2n(C)c1=O [Example 42, N-[4-(3,5-Difluoro-4-(2,2-dimethylpropoxy)phenyl)-1,3-thiazol-2-yl]-2-(1,3,7-trimethyl-2,4-dioxo-2,3,4,7-tetrahydro-1H-pyrrolo[2,3-d]pyrimidin-5-yl)acetamide]
23 | 30.1 | 41.6 | – | Cn1c(=O)c2c(CC(=O)Nc3nc(-c4ccc(F)c(C(F)(F)F)c4F)cs3)cn(C)c2n(C)c1=O [Example 43, N-{4-[2,4-Difluoro-3-(trifluoromethyl)phenyl]-1,3-thiazol-2-yl}-2-(1,3,7-trimethyl-2,4-dioxo-2,3,4,7-tetrahydro-1H-pyrrolo[2,3-d]pyrimidin-5-yl)acetamide]

From patent US9000159B2 (Glenmark Pharmaceuticals, S.A., priority 2009, dated 2015)
